Experimental data as given in patent US5821251A, “Nitrogen heterocycles” (John Wyeth & Brother Limited, priority 1994, dated 1998).

Key:
[1] = system: transient outward potassium current (TOC) in GH3 rat pituitary cell line; test: Procedure 2: blocking transient outward potassium currents (TOC) in the GH3 rat pituitary cell line; assay type: cell-based; details: GH3 cells; for % Block of TOC, PROCEDURE 2 GH3 %: 100 μM
Experimental: The compounds were also tested for blocking transient outward potassium currents (TOC) in the GH3 rat pituitary cell line according to the procedure below:
GH3 cells were obtained from either Flow Laboratories or European Centre for Animal Cell Cultures (Porton Down), and maintained in tissue culture using standard procedures and media for this cell line. Cells were plated on 35 mm plastic dishes and used subsequently for electophysiology with 1 to 10 days.
Currents were recorded using the whole-cell voltage clamp configuration of the patch clamp technique, using an Axopatch 1C amplifier (Axon Instruments). Patch electrodes were manufactured from aluminosilicate glass tubing (Clark Electomedical SM150F-10) and heat polished prior to use. Resistance was 1-5 M.OMEGA.. No electrode coating was necessary for whole-cell recording. Signal acquisition and analysis was performed using pClamp software (Axon Instruments). A p-on-4 subtraction procedure was used to remove leak and capacitative currents on line. A holding potential of -100 mV was routinely used: this avoided accumulation of slow voltage-dependent inactivation.
Two main protocols were used in testing drugs. 1) Current-voltage (I-V) curves were collected, with incrementing steps of either 10 or 20 mV. Full I-V curves were obtained both in control and drug solutions. 2) a `pharmacology` program, which involved single voltage steps fromm -100 to +60 mV, applied and collected at 20 s intervals. Compounds under investigation were applied via a `U` tube rapid application system to a small area of the recording chamber. Drug applications were always bracketed by control solutions to ensure reversibility. The recording chamber was continously perfused at 1-5 ml.min^-1. Results are expressed at % of control peak current (step form -100 to +60 mV). However, where drugs have a time dependent effect on TOC, i.e acceleration of TOC decay, results are also expressed as a % of total charge transferred within a defined period of the voltage step from -100 to +60 mV.
The standard extracellular solution contained (in mM): NaCl 135 (or choline or TRIS chloride); KCl 5; MgCl2 4; EGTA 1; TEACl 10; HEPES 10; glucose 25; pH set to 7.4 with NaOH. TTX was usually at 100-200 nM.
The intracellular (pipette) solution was comprised of (in mM): K aspartate 120; KCl 20; MgCl2 1; cAMP 1; MgATP 2; EGTA 10; HEPES 10; pH 7.4 with KOH. Other intracellular substrates were often used without noticeable effect. This solution was stored in 1 ml aliquots at -4° C., and filtered at 0.2 μm.
These recording solutions precluded activation of voltage dependent Na, Ca, delayed rectifier and Ca-activated K currents. The resulting whole-cell currents chiefly comprised the transient outward potassium current, switching on with third power kinetics reaching peak amplitudes of ~1 nA at +60 mV, and a double exponential decay (time constants of ~30 and 160 ms at +60 mV). There is no significant change in current amplitude within the normal recording period, which may extend for up to 90 min. One dish of cells usually lasts several hours.
The standard compound 4-aminopyridine is a block @ 1-5 mM. (80% block at 5 mM).

[2] = system: voltage gated potassium channels (transient outward current, TOC) in dorsal root ganglion (DRG) cells; test: Procedure 1: modulation of voltage-activated K^+ currents in dorsal root ganglion (DRG) cells, block of TOC; assay type: cell-based
Description: They may therefore by used to treat CNS disorders as described above such as depression, pain psychoses, anxiety, movement disorders (such as Parkinson's disease) and multiple sclerosis and in enhancing cognition, memory and learning.
Procedure 1 Modulation of voltage-activated K^+ currents in dorsal root ganglion (DRG) cells:
The method used in the culture or dorsal root ganglion cells is similar to that described by Wood et. al., Capsaicin induced ion fluxes in dorsal root ganglion cells in culture, J. Neuroscience, 8, 3208-3220) (1988). Dorsal root ganglia are dissected mainly from around the lumbar and thoracic vertebrae and placed in a conical centrifuge tube containing Ham's F14 nutrient mixture (F14:Imperial Laboratories) plus horse serum (HS: GIBCO or Flow). When all ganglia have been collected (ex ca. 14 pups) the excess medium is removed and the ganglia incubated for 30 min in "F14+HS" containing 0.1% collagenase Type 1A-S (Sigma). Excess medium is removed, ganglia washed in 4 ml F14 (no HS), resuspended and spun down at 900 g for 10 s. The supernatant is again removed and replaced with 1.8 ml F14 (no HS) plus 0.2 ml trypsin (GIBCO) at a final concentration of 0.25%. The ganglia are then incubated at 37° C. for 30 min agitating every 10 min to prevent clumping. The trypsinisation is inhibited by the addition of 6 ml "F14+HS" and cells are resuspended and centrifuged as before. The medium is removed and 2 ml added of "F14+HS" containing 0.4% DNAase 1 (Sigma). The ganglia are then triturated gently 15-20× using a siliconised pasteur pipette, filtered through a […] nylon mesh filter and collected into a centrifuge tube. The filter is further washed with 2 ml of "F14+HS" which is collected into the same tube. The suspension is spun at 900 g for 3 min, the supernatant removed and the cells resuspended in DRG Growth Medium (DRG-GM) which consists of: HAMS F14 nutrient mixture (40%, v/v), HS(10%, v/v) C6 conditioned medium (50%, v/v), penicillin/streptomycin (100 U/ml; 100 μg/ml) and NGF (30 μg/ml). Cells are then plated out onto five 60 mm poly-L-lysine-coated tissue culture petri dishes (see below).
After a few days in culture (3-7 days, usually), cells are resuspended from 60 mm dishes using a 0.25% solution of trypsin in F14. An equal volume of DRG-GM is added to inhibit the trypsin, the cells are spun at 900 g for 5 minutes and resuspended in 0.25-0.5 ml of DRG-GM. Neurites are removed by gentle trituration through a 21 g syringe needle (15-20 strokes) and a drop of the cell suspension is then placed on each of 5-6 poly-D-lysine- and laminin-coated 35 mm petri dishes (see below). After 30 minutes incubation at 37° C., each plate is flooded with ca 1.5 ml DRG-GM and after about 1 hour incubation, cells are ready for electrophysiological recording. This final step is carried out specifically in order to remove neurites which hinder good voltage-clamp of the cells.
2 ml of poly-D-lysine (Sigma), reconstituted in distilled water to 100 μg/ml, are added to each plate and left for 1-2 hours. Plates are then washed with water and left to dry. Laminin (5 μg/ml) is added as a drop to the centre of plates (previously coated with poly-D-Lys), left for 45 min before removal of excess and use of plates.
Recordings are made using an AxoClamp-2A (Axon Instruments Inc) switiching clamp amplifier using patch electrodes (4-8 Mohms), made from borosilicate glass capillary tubes (GC150TF-10, Clark Electromedical) and fire-polished. Electrodes are filled with (in mM): 140 K Gluconate, 2 MgCl2, 1.1 EGTA/KOH, 5 HEPES, 20 sucrose, 2 MgATP, 0.2 GTP; pH set to 7.2 with KOH and osmolarity adjusted with sucrose to 310 mOsm. The electrodes are then and dipped in Sigmacote (Sigma) prior to recording to reduce stray capacitance. […]

SMILES | % Block of TOC, PROCEDURE 2 GH3 % [1] [%] | % Block of TOC, PROCEDURE 1 DRG % ([2]; 10 μM) [%] | further results
COc1ccc(C[C@@H]2CC[C@H]3NC[C@H](CO)C[C@@H]3C2)cc1 (racemic) [Example 2, (±)-(3RS,4aSR,6RS,8aRS)-1,2,3,4,4a,5,6,7,8,8a-Decahydro-3-hydroxymethyl-6-((4-methoxyphenyl)methyl)quinoline] | 31 |  | 
COc1ccc(C[C@H]2CC[C@H]3NC[C@H](CO)C[C@H]3C2)cc1 (racemic) [Example 4, (±)-(3RS,4aRS,6SR,8aRS)-1,2,3,4,4a,5,6,7,8,8a-Decahydro-3-hydroxymethyl-6-((4-methoxyphenyl)methyl)quinoline] | 56 |  | % Block of TOC, PROCEDURE 1 DRG % ([2]; 100 μM): 60%
COc1ccc(C[C@H]2CC[C@@H]3NC[C@H](CO)C[C@H]3C2)cc1 (relative stereo) [Example 3, (±)-(3RS,4aRS,6SR,8aSR)-1,2,3,4,4,a,5,6,7,8,8a-Decahydro-3-hydroxymethyl-6-((4-methoxyphenyl)methyl)quinoline] | 68 | 32 | 
Nc1ccncc1 [4-aminopyridine, reference compound] |  |  | block of TOC (standard compound) ([2]; at 1 mM): 100%; block (standard compound), in words ([1]; @ 1-5 mM): block; block (standard compound) ([1]; at 5 mM): 80%
COc1ccc(CC2CCC3NCC(CO)CC3C2)cc1 (stereo not drawn) [Example 1, 1,2,3,4,4a,5,6,7,8,8a-Decahydro-3-hydroxymethyl-6-((4-methoxyphenyl)methyl)quinoline] | 55 |  | 
COc1ccc(C[C@@H]2CC[C@H]3NC[C@H](CO)C[C@@H]3C2)cc1 [Example 6, (+)-(3R,4aS,6R,8aR)-1,2,3,4,4a,5,6,7,8,8a-Decahydro-3-hydroxymethyl-6-((4-methoxyphenyl)methyl)quinoline] |  | 29 | 
COc1ccc(C[C@H]2CC[C@@H]3[C@@H](CCCN3[C@H](C)c3ccccc3)C2)cc1 [Example 8, (+)-(1'R,4aS,6S,8aR)-1,2,3,4,4a,5,6,7,8,8a-Decahydro-6-((4-methoxyphenyl)methyl)-1-(1'-phenylethyl)quinoline] |  | 49 | 
COc1ccc(C[C@H]2CC[C@H]3NCCC[C@H]3C2)cc1 [Example 9, (-)-(4aS,6S,8aR)-3,4,4a,5,6,7,8,8a-Decahydro-6-((4-methoxyphenyl)methyl)quinoline] |  | 28 | 
